Assay [1] concerns the target T1, C-X-C chemokine receptor type 4 (Homo sapiens, UniProt P61073). Briefly: Agonist activity at CXCR4 receptor in human REH cells assessed as induction of chemotactic migration at 10 nM after 3 hrs. It is filed as functional, cell-based.
Assay [2] deals with T1, C-X-C chemokine receptor type 4. Nature of the assay: Displacement of [125I]-SDF-1alpha from human CXCR4 receptor expressed in HEK293 cells after 1 hr by gamma counting. The format is cell-based.
Assay [3] has the same target. Nature of the assay: Agonist activity at CXCR4 receptor in human REH cells assessed as induction of chemotactic migration after 3 hrs. The format is functional, cell-based.
The target is the same in assay [4]. Nature of the assay: Antagonist activity at CXCR4 receptor in human REH cells assessed as inhibition of SDF-1alpha-induced chemotactic migration after 3 hrs. The format is functional, cell-based.

SMILES strings stand for the structures. Activity calls are given as the source filed them. No cut-off for these calls is given here.

T1 sequence (P61073 whole entry): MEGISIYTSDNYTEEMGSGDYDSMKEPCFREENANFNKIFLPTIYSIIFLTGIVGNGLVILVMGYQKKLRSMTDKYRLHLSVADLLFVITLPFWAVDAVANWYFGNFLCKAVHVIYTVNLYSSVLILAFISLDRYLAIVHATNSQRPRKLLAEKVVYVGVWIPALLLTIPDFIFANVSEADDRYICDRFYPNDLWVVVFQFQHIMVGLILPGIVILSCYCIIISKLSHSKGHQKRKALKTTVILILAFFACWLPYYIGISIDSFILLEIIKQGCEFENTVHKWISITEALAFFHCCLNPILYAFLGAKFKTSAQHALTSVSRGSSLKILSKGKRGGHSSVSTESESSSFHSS

As to `CC(C)C[C@H](NC(=O)[C@H](CO)NC(=O)[C@@H](NC(=O)[C@@H]1CCCN1C(=O)[C@@H](N)CCCCN)C(C)C)C(=O)N[C@@H](CO)C(=O)N[C@@H](Cc1ccc(O)cc1)C(=O)N[C@@H](CCCNC(=N)N)C(=O)N[C@@H](CO)C(=O)NCCCC[C@H](NC(=O)[C@@H]1CSSC[C@H](NC(=O)[C@H](Cc2ccc3ccccc3c2)NC(=O)[C@H](CCCNC(=N)N)NC(=O)[C@@H](N)CCCNC(=N)N)C(=O)N[C@@H](Cc2ccc(O)cc2)C(=O)N[C@@H](CCCNC(=N)N)C(=O)N[C@@H](CCCCN)C(=O)N[C@H](CCCCN)C(=O)N2CCC[C@H]2C(=O)N[C@@H](Cc2ccc(O)cc2)C(=O)N[C@@H](CCCNC(=N)N)C(=O)N[C@@H](CCCNC(=N)N)C(=O)C1)C(=O)O`, the outcome in assay [1] was Active.

For `CC(C)C[C@H](NC(=O)[C@H](CO)NC(=O)[C@@H](NC(=O)[C@@H]1CCCN1C(=O)[C@@H](N)CCCCN)C(C)C)C(=O)N[C@@H](CO)C(=O)N[C@@H](Cc1ccc(O)cc1)C(=O)N[C@@H](CCCN=C(N)N)C(=O)N[C@@H](CO)C(=O)NCCCC[C@H](NC(=O)[C@@H]1CSSC[C@H](NC(=O)[C@H](Cc2ccc3ccccc3c2)NC(=O)[C@H](CCCN=C(N)N)NC(=O)[C@@H](N)CCCN=C(N)N)C(=O)N[C@@H](Cc2ccc(O)cc2)C(=O)N[C@@H](CCCN=C(N)N)C(=O)N[C@@H](CCCCN)C(=O)N[C@H](CCCCN)C(=O)N2CCC[C@H]2C(=O)N[C@@H](Cc2ccc(O)cc2)C(=O)N[C@@H](CCCN=C(N)N)C(=O)N[C@@H](CCCN=C(N)N)C(=O)C1)C(=O)O`, the IC50 in assay [2] worked out at 5.67 nM.

As for `CC(C)C[C@H](NC(=O)[C@H](CO)NC(=O)[C@@H](NC(=O)[C@@H]1CCCN1C(=O)[C@@H](N)CCCCN)C(C)C)C(=O)N[C@@H](CO)C(=O)NCCCC[C@H](NC(=O)[C@@H]1CSSC[C@H](NC(=O)[C@H](Cc2ccc3ccccc3c2)NC(=O)[C@H](CCCNC(=N)N)NC(=O)[C@@H](N)CCCNC(=N)N)C(=O)N[C@@H](Cc2ccc(O)cc2)C(=O)N[C@@H](CCCNC(=N)N)C(=O)N[C@@H](CCCCN)C(=O)N[C@H](CCCCN)C(=O)N2CCC[C@H]2C(=O)N[C@@H](Cc2ccc(O)cc2)C(=O)N[C@@H](CCCNC(=N)N)C(=O)N[C@@H](CCCNC(N)=O)C(=O)C1)C(=O)O`, the result in assay [3] was inactive.

Molecule `CC(C)C[C@H](NC(=O)[C@H](CO)NC(=O)[C@@H](NC(=O)[C@@H]1CCCN1C(=O)[C@@H](N)CCCCN)C(C)C)C(=O)N[C@@H](CO)C(=O)N[C@@H](Cc1ccc(O)cc1)C(=O)N[C@@H](CCCN=C(N)N)C(=O)N[C@@H](CO)C(=O)N[C@@H](C)C(=O)NCCCC[C@H](NC(=O)[C@@H]1CSSC[C@H](NC(=O)[C@H](Cc2ccc3ccccc3c2)NC(=O)[C@H](CCCN=C(N)N)NC(=O)[C@@H](N)CCCN=C(N)N)C(=O)N[C@@H](Cc2ccc(O)cc2)C(=O)N[C@@H](CCCN=C(N)N)C(=O)N[C@@H](CCCCN)C(=O)N[C@H](CCCCN)C(=O)N2CCC[C@H]2C(=O)N[C@@H](Cc2ccc(O)cc2)C(=O)N[C@@H](CCCN=C(N)N)C(=O)N[C@@H](CCCN=C(N)N)C(=O)C1)C(=O)O` came in with an IC50 in assay [2] of 24.9 nM.

In assay [2], `CC(C)C[C@H](NC(=O)[C@H](CO)NC(=O)[C@@H](NC(=O)[C@@H]1CCCN1C(=O)[C@@H](N)CCCCN)C(C)C)C(=O)N[C@@H](CO)C(=O)N[C@@H](Cc1ccc(O)cc1)C(=O)N[C@@H](CCCN=C(N)N)C(=O)NCCCC[C@@H]1NC(=O)[C@H](CCCN=C(N)N)NC(=O)[C@H](Cc2ccc(O)cc2)NC(=O)[C@@H]2CCCN2C(=O)[C@@H](CCCCN)NC(=O)[C@H](CCCCN)NC(=O)[C@H](CCCN=C(N)N)NC(=O)[C@H](Cc2ccc(O)cc2)NC(=O)[C@@H](NC(=O)[C@H](Cc2ccc3ccccc3c2)NC(=O)[C@H](CCCN=C(N)N)NC(=O)[C@@H](N)CCCN=C(N)N)CSSC[C@@H](C(=O)N[C@@H](CCCN=C(N)N)C(=O)O)CC1=O` registered a half-inhibitory concentration (IC50) of 1.36 nM.

For `CC(C)C[C@H](NC(=O)[C@H](CO)NC(=O)[C@@H](NC(=O)[C@@H]1CCCN1C(=O)[C@@H](N)CCCCN)C(C)C)C(=O)N[C@@H](CO)C(=O)N[C@@H](Cc1ccc(O)cc1)C(=O)N[C@@H](CCCNC(=N)N)C(=O)N[C@@H](CO)C(=O)NCCCC[C@H](NC(=O)[C@@H]1CSSC[C@H](NC(=O)[C@H](Cc2ccc3ccccc3c2)NC(=O)[C@H](CCCNC(=N)N)NC(=O)[C@@H](N)CCCNC(=N)N)C(=O)N[C@@H](Cc2ccc(O)cc2)C(=O)N[C@@H](CCCNC(=N)N)C(=O)N[C@@H](CCCCN)C(=O)N[C@H](CCCCN)C(=O)N2CCC[C@H]2C(=O)N[C@@H](Cc2ccc(O)cc2)C(=O)N[C@@H](CCCNC(=N)N)C(=O)N[C@@H](CCCNC(N)=O)C(=O)C1)C(=O)O`, in assay [3], the result was inactive. This molecule yielded an IC50 in assay [2] of 21.2 nM.

On to `CC(C)C[C@H](NC(=O)[C@H](CO)NC(=O)[C@@H](NC(=O)[C@@H]1CCCN1C(=O)[C@@H](N)CCCCN)C(C)C)C(=O)N[C@@H](CO)C(=O)N[C@@H](Cc1ccc(O)cc1)C(=O)N[C@@H](CCCNC(=N)N)C(=O)NCCCC[C@@H]1NC(=O)[C@H](CCCNC(=N)N)NC(=O)[C@H](Cc2ccc(O)cc2)NC(=O)[C@@H]2CCCN2C(=O)[C@@H](CCCCN)NC(=O)[C@H](CCCCN)NC(=O)[C@H](CCCNC(=N)N)NC(=O)[C@H](Cc2ccc(O)cc2)NC(=O)[C@@H](NC(=O)[C@H](Cc2ccc3ccccc3c2)NC(=O)[C@H](CCCNC(=N)N)NC(=O)[C@@H](N)CCCNC(=N)N)CSSC[C@@H](C(=O)N[C@@H](CCCNC(=N)N)C(=O)O)CC1=O`, for which the result in assay [4] was Active.

`CC(C)C[C@H](NC(=O)[C@H](CO)NC(=O)[C@@H](NC(=O)[C@@H]1CCCN1C(=O)[C@@H](N)CCCCN)C(C)C)C(=O)N[C@@H](CO)C(=O)N[C@@H](Cc1ccc(O)cc1)C(=O)N[C@@H](CCCNC(=N)N)C(=O)NCCCC[C@H](NC(=O)[C@@H]1CSSC[C@H](NC(=O)[C@H](Cc2ccc3ccccc3c2)NC(=O)[C@H](CCCNC(=N)N)NC(=O)[C@@H](N)CCCNC(=N)N)C(=O)N[C@@H](Cc2ccc(O)cc2)C(=O)N[C@@H](CCCNC(=N)N)C(=O)N[C@@H](CCCCN)C(=O)N[C@H](CCCCN)C(=O)N2CCC[C@H]2C(=O)N[C@@H](Cc2ccc(O)cc2)C(=O)N[C@@H](CCCNC(=N)N)C(=O)N[C@@H](CCCNC(=N)N)C(=O)C1)C(=O)O`: the result in assay [3] was inactive. Further, in assay [2], the IC50 came out at 16.5 nM.

As to `CC(C)C[C@H](NC(=O)[C@H](CO)NC(=O)[C@@H](NC(=O)[C@@H]1CCCN1C(=O)[C@@H](N)CCCCN)C(C)C)C(=O)N[C@@H](CO)C(=O)N[C@@H](Cc1ccc(O)cc1)C(=O)NCCCC[C@H](NC(=O)[C@@H]1CSSC[C@H](NC(=O)[C@H](Cc2ccc3ccccc3c2)NC(=O)[C@H](CCCNC(=N)N)NC(=O)[C@@H](N)CCCNC(=N)N)C(=O)N[C@@H](Cc2ccc(O)cc2)C(=O)N[C@@H](CCCNC(=N)N)C(=O)N[C@@H](CCCCN)C(=O)N[C@H](CCCCN)C(=O)N2CCC[C@H]2C(=O)N[C@@H](Cc2ccc(O)cc2)C(=O)N[C@@H](CCCNC(=N)N)C(=O)N[C@@H](CCCNC(=N)N)C(=O)C1)C(=O)O`, the result in assay [1] was Active. In assay [2], this molecule displayed an IC50 of 38.6 nM.

Molecule `CC(C)C[C@H](NC(=O)[C@H](CO)NC(=O)[C@@H](NC(=O)[C@@H]1CCCN1C(=O)[C@@H](N)CCCCN)C(C)C)C(=O)N[C@@H](CO)C(=O)N[C@@H](Cc1ccc(O)cc1)C(=O)N[C@@H](CCCN=C(N)N)C(=O)NCCCC[C@H](NC(=O)[C@@H]1CSSC[C@H](NC(=O)[C@H](Cc2ccc3ccccc3c2)NC(=O)[C@H](CCCN=C(N)N)NC(=O)[C@@H](N)CCCN=C(N)N)C(=O)N[C@@H](Cc2ccc(O)cc2)C(=O)N[C@@H](CCCN=C(N)N)C(=O)N[C@@H](CCCCN)C(=O)N[C@H](CCCCN)C(=O)N2CCC[C@H]2C(=O)N[C@@H](Cc2ccc(O)cc2)C(=O)N[C@@H](CCCN=C(N)N)C(=O)N[C@@H](CCCNC(N)=O)C(=O)C1)C(=O)O` came in with an IC50 in assay [2] of 21.7 nM.

In the case of `CC(C)C[C@H](NC(=O)[C@H](CO)NC(=O)[C@@H](NC(=O)[C@@H]1CCCN1C(=O)[C@@H](N)CCCCN)C(C)C)C(=O)N[C@@H](CO)C(=O)N[C@@H](Cc1ccc(O)cc1)C(=O)N[C@@H](CCCNC(=N)N)C(=O)N[C@@H](CO)C(=O)N[C@@H](C)C(=O)NCCCC[C@H](NC(=O)[C@@H]1CSSC[C@H](NC(=O)[C@H](Cc2ccc3ccccc3c2)NC(=O)[C@H](CCCNC(=N)N)NC(=O)[C@@H](N)CCCNC(=N)N)C(=O)N[C@@H](Cc2ccc(O)cc2)C(=O)N[C@@H](CCCNC(=N)N)C(=O)N[C@@H](CCCCN)C(=O)N[C@H](CCCCN)C(=O)N2CCC[C@H]2C(=O)N[C@@H](Cc2ccc(O)cc2)C(=O)N[C@@H](CCCNC(=N)N)C(=O)N[C@@H](CCCNC(=N)N)C(=O)C1)C(=O)O`, the outcome in assay [1] was Active.

For `CC(C)C[C@H](NC(=O)[C@H](CO)NC(=O)[C@@H](NC(=O)[C@@H]1CCCN1C(=O)[C@@H](N)CCCCN)C(C)C)C(=O)N[C@@H](CO)C(=O)NCCCC[C@H](NC(=O)[C@@H]1CSSC[C@H](NC(=O)[C@H](Cc2ccc3ccccc3c2)NC(=O)[C@H](CCCN=C(N)N)NC(=O)[C@@H](N)CCCN=C(N)N)C(=O)N[C@@H](Cc2ccc(O)cc2)C(=O)N[C@@H](CCCN=C(N)N)C(=O)N[C@@H](CCCCN)C(=O)N[C@H](CCCCN)C(=O)N2CCC[C@H]2C(=O)N[C@@H](Cc2ccc(O)cc2)C(=O)N[C@@H](CCCN=C(N)N)C(=O)N[C@@H](CCCNC(N)=O)C(=O)C1)C(=O)O`, in assay [2], the IC50 came out at 62 nM.

As to `CC(C)C[C@H](NC(=O)[C@H](CO)NC(=O)[C@@H](NC(=O)[C@@H]1CCCN1C(=O)[C@@H](N)CCCCN)C(C)C)C(=O)N[C@@H](CO)C(=O)NCCCC[C@H](NC(=O)[C@@H]1CSSC[C@H](NC(=O)[C@H](Cc2ccc3ccccc3c2)NC(=O)[C@H](CCCNC(=N)N)NC(=O)[C@@H](N)CCCNC(=N)N)C(=O)N[C@@H](Cc2ccc(O)cc2)C(=O)N[C@@H](CCCNC(=N)N)C(=O)N[C@@H](CCCCN)C(=O)N[C@H](CCCCN)C(=O)N2CCC[C@H]2C(=O)N[C@@H](Cc2ccc(O)cc2)C(=O)N[C@@H](CCCNC(=N)N)C(=O)N[C@@H](CCCNC(=N)N)C(=O)C1)C(=O)O`, the result in assay [3] was inactive. For the same molecule, the IC50 in assay [2] is 28.3 nM.

`NCCCC[C@@H]1NC(=O)[C@H](CCCN=C(N)N)NC(=O)[C@H](Cc2ccc(O)cc2)NC(=O)[C@@H](NC(=O)[C@H](Cc2ccc3ccccc3c2)NC(=O)[C@H](CCCN=C(N)N)NC(=O)[C@@H](N)CCCN=C(N)N)CSSC[C@@H](C(=O)N[C@@H](CCCN=C(N)N)C(=O)O)CC(=O)[C@H](CCCNC(N)=O)NC(=O)[C@H](CCCN=C(N)N)NC(=O)[C@H](Cc2ccc(O)cc2)NC(=O)[C@@H]2CCCN2C(=O)[C@@H](CCCCN)NC1=O` returned an IC50 in assay [2] of 1.56 nM.

(Values after ChEMBL document CHEMBL2010767, “Agonists for the Chemokine Receptor CXCR4” (ACS Med Chem Lett, 2011).)
